Values quoted from earlier work as cited in patent US20130101864A1, “Multifunctional Long-Acting Rust-Proof Film and Manufacturing Method Thereof” (Zhejiang Great Southeast Packaging Co., Ltd., priority 2010, published 2013).

Legend:
[1] = no harmful physiological toxicity on human body

## c1ccc2[nH]nnc2c1 [Benzotriazole]
alcohol, benzene, toluene, chloroform and dimethylformamide
  solubility in organic solvents: soluble
water
  solubility in water: slightly soluble
[1]
  toxicity: non-toxic
